In the case of `NC(=O)CC[C@H](N)C(=O)O`, the solubility (mole fraction) (in 2-butanone, 283.15 K) is reported as 0.00015, the solubility (mole fraction) (in 2-butanone, 288.15 K) is reported as 0.00017 and the solubility (mole fraction) (in 2-butanone, 293.15 K) is reported as 0.0002. For the same molecule, the solubility (mole fraction) (in 2-butanone, 298.15 K) was 0.000237, the solubility (mole fraction) (in 2-butanone, 303.15 K) was 0.000271 and the solubility (mole fraction) (in 2-butanone, 308.15 K) was 0.000301. For the same molecule, the solubility (mole fraction) (in 2-butanone, 313.15 K) was 0.000338, the solubility (mole fraction) (in 2-butanone, 318.15 K) was 0.000373 and the solubility (mole fraction) (in 2-butanone, 323.15 K) was 0.00041. The solubility (mole fraction) (in acetonitrile, 283.15 K) was 3.44e-05, the solubility (mole fraction) (in acetonitrile, 288.15 K) was 6.77e-05 and the solubility (mole fraction) (in acetonitrile, 293.15 K) was 0.000104. It also gave a solubility (mole fraction) (in acetonitrile, 298.15 K) of 0.000138, a solubility (mole fraction) (in acetonitrile, 303.15 K) of 0.000164 and a solubility (mole fraction) (in acetonitrile, 308.15 K) of 0.000192. For the same molecule, the solubility (mole fraction) (in acetonitrile, 313.15 K) was 0.000225, the solubility (mole fraction) (in acetonitrile, 318.15 K) was 0.000254 and the solubility (mole fraction) (in acetonitrile, 323.15 K) was 0.000283. The solubility (mole fraction) (in ethanol, 283.15 K) was 0.000273, the solubility (mole fraction) (in ethanol, 288.15 K) was 0.000304 and the solubility (mole fraction) (in ethanol, 293.15 K) was 0.000337. It also gave a solubility (mole fraction) (in ethanol, 298.15 K) of 0.000372, a solubility (mole fraction) (in ethanol, 303.15 K) of 0.000408 and a solubility (mole fraction) (in ethanol, 308.15 K) of 0.000447. The solubility (mole fraction) (in ethanol, 313.15 K) was 0.000494, the solubility (mole fraction) (in ethanol, 318.15 K) was 0.000522 and the solubility (mole fraction) (in ethanol, 323.15 K) was 0.000584. The solubility (mole fraction) (in ethyl acetate, 283.15 K) was 2.94e-05, the solubility (mole fraction) (in ethyl acetate, 288.15 K) was 5.21e-05 and the solubility (mole fraction) (in ethyl acetate, 293.15 K) was 0.000138. It also gave a solubility (mole fraction) (in ethyl acetate, 298.15 K) of 0.000218, a solubility (mole fraction) (in ethyl acetate, 303.15 K) of 0.000293 and a solubility (mole fraction) (in ethyl acetate, 308.15 K) of 0.000362. The solubility (mole fraction) (in ethyl acetate, 313.15 K) was 0.000452, the solubility (mole fraction) (in ethyl acetate, 318.15 K) was 0.00054 and the solubility (mole fraction) (in ethyl acetate, 323.15 K) was 0.000653. The solubility (mole fraction) (in isobutanol, 283.15 K) was 5.11e-05, the solubility (mole fraction) (in isobutanol, 288.15 K) was 0.000112 and the solubility (mole fraction) (in isobutanol, 293.15 K) was 0.000163. The solubility (mole fraction) (in isobutanol, 298.15 K) was 0.000254, the solubility (mole fraction) (in isobutanol, 303.15 K) was 0.000348 and the solubility (mole fraction) (in isobutanol, 308.15 K) was 0.000442. It also gave a solubility (mole fraction) (in isobutanol, 313.15 K) of 0.000556, a solubility (mole fraction) (in isobutanol, 318.15 K) of 0.000662 and a solubility (mole fraction) (in isobutanol, 323.15 K) of 0.000798. It also gave a solubility (mole fraction) (in methanol, 283.15 K) of 9.5e-05, a solubility (mole fraction) (in methanol, 288.15 K) of 0.000101 and a solubility (mole fraction) (in methanol, 293.15 K) of 0.000114. The solubility (mole fraction) (in methanol, 298.15 K) was 0.000134, the solubility (mole fraction) (in methanol, 303.15 K) was 0.000164 and the solubility (mole fraction) (in methanol, 308.15 K) was 0.000205. It also gave a solubility (mole fraction) (in methanol, 313.15 K) of 0.00025, a solubility (mole fraction) (in methanol, 318.15 K) of 0.000286 and a solubility (mole fraction) (in methanol, 323.15 K) of 0.000347. It also gave a solubility (mole fraction) (in n-butanol, 283.15 K) of 0.000184, a solubility (mole fraction) (in n-butanol, 288.15 K) of 0.00023 and a solubility (mole fraction) (in n-butanol, 293.15 K) of 0.000291. For the same molecule, the solubility (mole fraction) (in n-butanol, 298.15 K) was 0.00035, the solubility (mole fraction) (in n-butanol, 303.15 K) was 0.0004 and the solubility (mole fraction) (in n-butanol, 308.15 K) was 0.000458. It also gave a solubility (mole fraction) (in n-butanol, 313.15 K) of 0.000522, a solubility (mole fraction) (in n-butanol, 318.15 K) of 0.000574 and a solubility (mole fraction) (in n-butanol, 323.15 K) of 0.000635. It also gave a solubility (mole fraction) (in n-hexane, 283.15 K) of 0.000129, a solubility (mole fraction) (in n-hexane, 288.15 K) of 0.000196 and a solubility (mole fraction) (in n-hexane, 293.15 K) of 0.000263. It also gave a solubility (mole fraction) (in n-hexane, 298.15 K) of 0.000346, a solubility (mole fraction) (in n-hexane, 303.15 K) of 0.000425 and a solubility (mole fraction) (in n-hexane, 308.15 K) of 0.000494. It also gave a solubility (mole fraction) (in n-hexane, 313.15 K) of 0.000554, a solubility (mole fraction) (in n-hexane, 318.15 K) of 0.000621 and a solubility (mole fraction) (in n-hexane, 323.15 K) of 0.000681. The solubility (mole fraction) (in n-pentanol, 283.15 K) was 8.57e-05, the solubility (mole fraction) (in n-pentanol, 288.15 K) was 0.000109 and the solubility (mole fraction) (in n-pentanol, 293.15 K) was 0.000137. The solubility (mole fraction) (in n-pentanol, 298.15 K) was 0.000163, the solubility (mole fraction) (in n-pentanol, 303.15 K) was 0.000245 and the solubility (mole fraction) (in n-pentanol, 308.15 K) was 0.000335. It also gave a solubility (mole fraction) (in n-pentanol, 313.15 K) of 0.000448, a solubility (mole fraction) (in n-pentanol, 318.15 K) of 0.000556 and a solubility (mole fraction) (in n-pentanol, 323.15 K) of 0.000654. It also gave a solubility (mole fraction) (in n-propanol, 283.15 K) of 8.13e-05, a solubility (mole fraction) (in n-propanol, 288.15 K) of 0.000115 and a solubility (mole fraction) (in n-propanol, 293.15 K) of 0.000156. It also gave a solubility (mole fraction) (in n-propanol, 298.15 K) of 0.000189, a solubility (mole fraction) (in n-propanol, 303.15 K) of 0.000227 and a solubility (mole fraction) (in n-propanol, 308.15 K) of 0.000266. It also gave a solubility (mole fraction) (in n-propanol, 313.15 K) of 0.000321, a solubility (mole fraction) (in n-propanol, 318.15 K) of 0.000375 and a solubility (mole fraction) (in n-propanol, 323.15 K) of 0.000434. The solubility (mole fraction) (in sec-butanol, 283.15 K) was 5.51e-05, the solubility (mole fraction) (in sec-butanol, 288.15 K) was 0.000106 and the solubility (mole fraction) (in sec-butanol, 293.15 K) was 0.00017. It also gave a solubility (mole fraction) (in sec-butanol, 298.15 K) of 0.000231, a solubility (mole fraction) (in sec-butanol, 303.15 K) of 0.000281 and a solubility (mole fraction) (in sec-butanol, 308.15 K) of 0.000353. The solubility (mole fraction) (in sec-butanol, 313.15 K) was 0.00042, the solubility (mole fraction) (in sec-butanol, 318.15 K) was 0.000501 and the solubility (mole fraction) (in sec-butanol, 323.15 K) was 0.000593. It also gave a solubility (mole fraction) (in water, 283.15 K) of 0.00356, a solubility (mole fraction) (in water, 288.15 K) of 0.00409 and a solubility (mole fraction) (in water, 293.15 K) of 0.00471. It also gave a solubility (mole fraction) (in water, 298.15 K) of 0.00533, a solubility (mole fraction) (in water, 303.15 K) of 0.00595 and a solubility (mole fraction) (in water, 308.15 K) of 0.00682. For the same molecule, the solubility (mole fraction) (in water, 313.15 K) was 0.00811, the solubility (mole fraction) (in water, 318.15 K) was 0.0097 and the solubility (mole fraction) (in water, 323.15 K) was 0.0121.

From BigSolDB 2.1
